Test results taken from PubChem BioAssay AID330 (DTP/NCI, 2004).
Values joined by “and” are separate entries in the source; they are usually repeats but may differ in a detail not shown here. Identical values can stand only once. Toxic doses and inconclusive results are not listed. The calls were made as follows: active = survival T/C of 150% or more; inactive = T/C below 125% in these data.

Test system: P388 leukemia ip, CD2F1 mice, survival T/C
Assay: NCI In Vivo Anticancer Drug Screen. Data for tumor model P388 Leukemia (intraperitoneal) in CD2F1 (CDF1) mice
Settings: endpoint: median survival time, higher = longer survival
Procedure, shortened: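 Mice carrying the transplanted tumor received test compound or vehicle. Survival was recorded in each group, and the value is the treated-group measurement divided by that of the vehicle-treated control group.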

[1] = dose: 50.0 mg/kg/injection, schedule: Q01DX009 (ip), vehicle: saline with Tween-80
[2] = dose: 100.0 mg/kg/injection, schedule: Q01DX009 (ip), vehicle: saline with Tween-80
[3] = dose: 200.0 mg/kg/injection, schedule: Q01DX009 (ip), vehicle: saline with Tween-80
[4] = dose: 50.0 mg/kg/injection, schedule: Q01DX009 (ip), vehicle: saline
[5] = dose: 100.0 mg/kg/injection, schedule: Q01DX009 (ip), vehicle: saline
[6] = dose: 200.0 mg/kg/injection, schedule: Q01DX009 (ip), vehicle: saline
[7] = dose: 50.0 mg/kg/injection, schedule: Q01DX005 (ip), vehicle: saline with Tween-80
[8] = dose: 100.0 mg/kg/injection, schedule: Q01DX005 (ip), vehicle: saline with Tween-80
[9] = dose: 200.0 mg/kg/injection, schedule: Q01DX005 (ip), vehicle: saline with Tween-80
[10] = dose: 400.0 mg/kg/injection, schedule: Q01DX009 (ip), vehicle: saline with Tween-80
[11] = dose: 60.0 mg/kg/injection, schedule: Q01DX005 (ip), vehicle: saline with Tween-80
[12] = dose: 120.0 mg/kg/injection, schedule: Q01DX005 (ip), vehicle: saline with Tween-80
[13] = dose: 240.0 mg/kg/injection, schedule: Q01DX005 (ip), vehicle: saline with Tween-80
[14] = dose: 25.0 mg/kg/injection, schedule: Q01DX009 (ip), vehicle: saline

Measured: T/C

NC(=S)N/N=C\C(=O)c1cccc([N+](=O)[O-])c1
inactive: [1] 94 % of control | [2] 105 % of control | [3] 96 % of control

O=C1OC(c2ccc([N+](=O)[O-])cc2)=N/C1=C\c1ccc(Cl)cc1
inactive: dose: 3.13 mg/kg/injection, schedule: Q01DX009 (ip), vehicle: Klucel (hydroxypropylcellulose) (HPC) 115 % of control | dose: 6.25 mg/kg/injection, schedule: Q01DX009 (ip), vehicle: Klucel (hydroxypropylcellulose) (HPC) 115 % of control | dose: 12.5 mg/kg/injection, schedule: Q01DX009 (ip), vehicle: Klucel (hydroxypropylcellulose) (HPC) 105 % of control and 88 % of control | dose: 25.0 mg/kg/injection, schedule: Q01DX009 (ip), vehicle: Klucel (hydroxypropylcellulose) (HPC) 88 % of control

NC(Cc1ccccc1F)c1nn[nH]n1 (stereo not drawn)
inactive: dose: 25.0 mg/kg/injection, schedule: Q01DX009 (ip), vehicle: saline with Tween-80 108 % of control | [1] 97 % of control | [2] 99 % of control

Cc1cnc(Sc2ncccc2[N+](=O)[O-])nc1
inactive: [4] 109 % of control | [5] 109 % of control | [6] 116 % of control

O=C1c2ccccc2C2(O)C(=O)c3ccccc3C12 (stereo not drawn)
inactive: dose: 100.0 mg/kg/injection, schedule: Q01DX001 (ip), vehicle: Klucel (hydroxypropylcellulose) (HPC) 102 % of control | dose: 200.0 mg/kg/injection, schedule: Q01DX001 (ip), vehicle: Klucel (hydroxypropylcellulose) (HPC) 105 % of control | dose: 400.0 mg/kg/injection, schedule: Q01DX001 (ip), vehicle: Klucel (hydroxypropylcellulose) (HPC) 108 % of control

C=C(C)C(=NC)NC(C)(C)C
inactive: dose: 50.0 mg/kg/injection, schedule: Q01DX005 (ip), vehicle: Klucel (hydroxypropylcellulose) (HPC) 100 % of control | dose: 100.0 mg/kg/injection, schedule: Q01DX005 (ip), vehicle: Klucel (hydroxypropylcellulose) (HPC) 102 % of control

c1cncc(-c2n[nH]c3c2CCc2ccccc2-3)c1
inactive: dose: 12.5 mg/kg/injection, schedule: Q01DX009 (ip), vehicle: other 121 % of control | dose: 37.5 mg/kg/injection, schedule: Q01DX009 (ip), vehicle: other 86 % of control | dose: 50.0 mg/kg/injection, schedule: Q01DX009 (ip), vehicle: other 121 % of control | dose: 75.0 mg/kg/injection, schedule: Q01DX009 (ip), vehicle: other 113 % of control | dose: 100.0 mg/kg/injection, schedule: Q01DX009 (ip), vehicle: other 111 % of control | dose: 150.0 mg/kg/injection, schedule: Q01DX009 (ip), vehicle: other 100 % of control | dose: 200.0 mg/kg/injection, schedule: Q01DX009 (ip), vehicle: other 101 % of control | dose: 300.0 mg/kg/injection, schedule: Q01DX009 (ip), vehicle: other 104 % of control

CCOC(=O)N1c2ccccc2C(c2ccccc2)=NC1(C#N)CC (stereo not drawn)
inactive: [7] 96 % of control | [8] 96 % of control | [9] 97 % of control

O=c1[nH]c(=O)n(C2CC(O)C(CO)O2)cc1I (stereo not drawn)
inactive: dose: 40.0 mg/kg/injection, schedule: Q01DX009 (ip), vehicle: saline with Tween-80 101 % of control | dose: 80.0 mg/kg/injection, schedule: Q01DX009 (ip), vehicle: saline with Tween-80 105 % of control | [2] 118 % of control | dose: 100.0 mg/kg/injection, schedule: Q04DX003 (ip), vehicle: saline sonified 110 % of control | dose: 160.0 mg/kg/injection, schedule: Q01DX009 (ip), vehicle: saline with Tween-80 104 % of control | [3] 118 % of control | dose: 200.0 mg/kg/injection, schedule: Q04DX003 (ip), vehicle: saline sonified 120 % of control | dose: 320.0 mg/kg/injection, schedule: Q01DX009 (ip), vehicle: saline with Tween-80 122 % of control | [10] 118 % of control | dose: 400.0 mg/kg/injection, schedule: Q04DX003 (ip), vehicle: saline sonified 120 % of control

CCOC(=O)CC(CSCP(=O)(OCC)OCC)C(=O)OCC (stereo not drawn)
inactive: [11] 105 % of control | [12] 94 % of control | [13] 100 % of control

CSc1nc(C)c(C(=O)CCN2CCOCC2)s1
inactive: dose: 60.0 mg/kg/injection, schedule: Q01DX005 (ip), vehicle: saline 117 % of control | dose: 120.0 mg/kg/injection, schedule: Q01DX005 (ip), vehicle: saline 105 % of control

COc1cc(C2NCCc3cc4c(cc32)OCO4)cc(OC)c1OC (stereo not drawn)
inactive: [7] 100 % of control | [8] 100 % of control

CN=C1N[N+]2=CCCCC2S1 (stereo not drawn)
inactive: dose: 12.5 mg/kg/injection, schedule: Q04DX003 (ip), vehicle: saline 102 % of control | dose: 15.0 mg/kg/injection, schedule: Q01DX009 (ip), vehicle: saline 100 % of control and 101 % of control | dose: 25.0 mg/kg/injection, schedule: Q04DX003 (ip), vehicle: saline 104 % of control | dose: 30.0 mg/kg/injection, schedule: Q01DX009 (ip), vehicle: saline 92 % of control and 97 % of control | dose: 50.0 mg/kg/injection, schedule: Q04DX003 (ip), vehicle: saline 97 % of control | dose: 60.0 mg/kg/injection, schedule: Q01DX009 (ip), vehicle: saline 114 % of control and 96 % of control | dose: 120.0 mg/kg/injection, schedule: Q01DX009 (ip), vehicle: saline 120 % of control and 96 % of control

Fc1cccc(Cl)c1C(Nc1nccs1)Nc1nccs1
inactive: dose: 60.0 mg/kg/injection, schedule: Q01DX005 (ip), vehicle: Klucel (hydroxypropylcellulose) (HPC) 107 % of control | dose: 120.0 mg/kg/injection, schedule: Q01DX005 (ip), vehicle: Klucel (hydroxypropylcellulose) (HPC) 103 % of control | dose: 240.0 mg/kg/injection, schedule: Q01DX005 (ip), vehicle: Klucel (hydroxypropylcellulose) (HPC) 104 % of control

NC(=S)NN=C(C1CC1)C1CC1
inactive: dose: 6.25 mg/kg/injection, schedule: Q01DX005 (ip), vehicle: Klucel (hydroxypropylcellulose) (HPC) 98 % of control | dose: 12.5 mg/kg/injection, schedule: Q01DX005 (ip), vehicle: Klucel (hydroxypropylcellulose) (HPC) 97 % of control

CC(=O)CC(=O)Nc1ccccc1
inactive: dose: 12.5 mg/kg/injection, schedule: Q01DX009 (ip), vehicle: saline 105 % of control | [14] 94 % of control | [4] 88 % of control

CC(C)(C)OC(=O)NCCCC(NC(=O)OCc1ccccc1)C(=O)O (stereo not drawn)
inactive: [7] 103 % of control | [8] 99 % of control | [9] 95 % of control

CCN(CC)CCCC(C)Nc1cc(C)nc2c1ccc1c2ccc2c(NC(C)CCCN(CC)CC)cc(C)nc21 (stereo not drawn)
inactive: dose: 12.5 mg/kg/injection, schedule: Q01DX009 (ip), vehicle: distilled water + Tween-80 118 % of control | dose: 25.0 mg/kg/injection, schedule: Q01DX009 (ip), vehicle: distilled water + Tween-80 111 % of control

Clc1ccccc1N=NN1CCN(c2ccccc2)CC1
inactive: [1] 88 % of control | [2] 102 % of control | [3] 93 % of control

CCCN1COC(OCCN(CC)CC)C(C)(C)C1 (stereo not drawn)
inactive: [1] 108 % of control | [2] 113 % of control | [3] 107 % of control

O=C1c2ccccc2C(=O)c2c(O)c(NCCO)cc(O)c21
inactive: dose: 100.0 mg/kg/injection, schedule: Q04DX002 (ip), vehicle: Klucel (hydroxypropylcellulose) (HPC) 92 % of control | dose: 200.0 mg/kg/injection, schedule: Q04DX002 (ip), vehicle: Klucel (hydroxypropylcellulose) (HPC) 101 % of control | dose: 400.0 mg/kg/injection, schedule: Q04DX002 (ip), vehicle: Klucel (hydroxypropylcellulose) (HPC) 93 % of control

CC(=O)NC(CO)C(=O)c1ccc(S(=O)(=O)c2ccccc2)cc1 (stereo not drawn)
inactive: [2] 97 % of control | [3] 91 % of control | [10] 94 % of control

N#CCC(=O)O
inactive: dose: 18.75 mg/kg/injection, schedule: Q04DX003 (ip), vehicle: saline 100 % of control | dose: 37.5 mg/kg/injection, schedule: Q04DX003 (ip), vehicle: saline 100 % of control | dose: 75.0 mg/kg/injection, schedule: Q04DX003 (ip), vehicle: saline 90 % of control

C[N+]1(CC(=O)O)C2CCC1CC(O)C2 (stereo not drawn)
inactive: [14] 108 % of control | [4] 98 % of control and 100 % of control | [5] 101 % of control | [6] 101 % of control and 96 % of control

O=C(CNC(=O)c1ccccc1)N/N=C/c1ccccc1O
inactive: [11] 100 % of control | [12] 101 % of control | [13] 100 % of control
